Values quoted from earlier work as cited in US12336999B2, “Modified release formulations of 2-[3-[4-amino-3-(2-fluoro-4-phenoxy-phenyl) pyrazolo[3,4-d] pyrimidin-1-yl]piperidine-1-carbonyl]-4-methyl-4-[4-(oxetan-3-yl) piperazin-1-yl]pent-2-enenitrile” (Principia Biopharma Inc., priority 2016, dated 2025).
Read-outs that look alike come from different tables or passages of the source.

bioavailability as determined by AUC (administered intraduodenally): 100%
bioavailability as determined by AUC (direct oral administration): 21%
Compound: C=CC(=O)N1CCC[C@@H](n2nc(-c3ccc(Oc4ccccc4)cc3)c3c(N)ncnc32)C1 [ibrutinib]
